Reference: ChEMBL document CHEMBL3885881, “DrugMatrix”

Species on record: Rattus norvegicus
Test: DrugMatrix - Regimen: Daily Repeat
Type: toxicity, organism-based, Sprague-Dawley
Set-up: regimen Daily Repeat, gender Male, age 6-8 weeks
Conditions: in vivo, iv, vehicle 100 % SALINE; for ABSOLUTE BASOPHIL / ABSOLUTE EOSINOPHIL / ABSOLUTE LYMPHOCYTE / ABSOLUTE MONOCYTE / ABSOLUTE SEGMENTED NEUTROPHIL / BASOPHIL / EOSINOPHIL / ERYTHROCYTE COUNT / HEMATOCRIT / HEMOGLOBIN / LEUKOCYTE COUNT / LYMPHOCYTE / MEAN CORPUSCULAR HEMOGLOBIN / MEAN CORPUSCULAR HEMOGLOBIN CONCENTRATION / MEAN CORPUSCULAR VOLUME / MONOCYTE / NEUTROPHIL / NUCLEATED RED BLOOD CELLS / PLATELET COUNT: tissue Blood; for ALANINE AMINOTRANSFERASE / ALBUMIN / ALKALINE PHOSPHATASE / ASPARTATE AMINOTRANSFERASE / BLOOD UREA NITROGEN / CARBON DIOXIDE / CHLORIDE / CHOLESTEROL / CREATINE PHOSPHOKINASE / CREATININE / GLUCOSE / LACTATE DEHYDROGENASE / LIPASE / PHOSPHORUS / POTASSIUM / SODIUM / TOTAL BILIRUBIN / TOTAL PROTEIN / URIC ACID: tissue Plasma
[1] = 120 mg/kg, 72 h, dose level High, time 3 day
[2] = 120 mg/kg, 120 h, dose level High, time 5 day
[3] = […], 72 h, dose 8.2 mg/Kg, dose level Low, time 3 day
[4] = […], 120 h, dose 8.2 mg/Kg, dose level Low, time 5 day

Compound: [H]/N=C(/N)N[C@H]1[C@H](O)[C@@H](O)[C@H](O[C@@H]2O[C@@H](C)[C@](O)(C=O)[C@H]2O[C@@H]2O[C@@H](CO)[C@H](O)[C@@H](O)[C@@H]2NC)[C@@H](N/C(N)=N\[H])[C@@H]1O [STREPTOMYCIN]
- ABSOLUTE BASOPHIL [1]: 0 CELLS/uL
- ABSOLUTE EOSINOPHIL [1]: 272.33 CELLS/uL
- ABSOLUTE LYMPHOCYTE [1]: 11274.33 CELLS/uL
- ABSOLUTE MONOCYTE [1]: 397 CELLS/uL
- ABSOLUTE SEGMENTED NEUTROPHIL [1]: 1289.67 CELLS/uL
- BASOPHIL [1]: 0%
- EOSINOPHIL [1]: 2%
- ERYTHROCYTE COUNT [1]: 5.88 x10E6/uL
- HEMATOCRIT [1]: 36.13%
- HEMOGLOBIN [1]: 13.67 G/DL
- LEUKOCYTE COUNT [1]: 13.23 x10E3/uL
- LYMPHOCYTE [1]: 85.33%
- MEAN CORPUSCULAR HEMOGLOBIN [1]: 23.3 pg
- MEAN CORPUSCULAR HEMOGLOBIN CONCENTRATION [1]: 37.8 G/DL
- MEAN CORPUSCULAR VOLUME [1]: 61.53 fL
- MONOCYTE [1]: 3%
- NEUTROPHIL [1]: 9.67%
- NUCLEATED RED BLOOD CELLS [1]: 0.33 /100WBC
- PLATELET COUNT [1]: 1314 x10E3/uL
- ALANINE AMINOTRANSFERASE [1]: 43 u/L
- ALBUMIN [1]: 4.27 G/DL
- ALKALINE PHOSPHATASE [1]: 316.67 u/L
- ASPARTATE AMINOTRANSFERASE [1]: 75.67 u/L
- BLOOD UREA NITROGEN [1]: 18.33 mg/dL
- CARBON DIOXIDE [1]: 24.67 mmol/L
- CHLORIDE [1]: 106 MEQ/L
- CHOLESTEROL [1]: 86 mg/dL
- CREATINE PHOSPHOKINASE [1]: 233.67 u/L
- CREATININE [1]: 0.28 mg/dL
- GLUCOSE [1]: 150.33 mg/dL
- LACTATE DEHYDROGENASE [1]: 355.67 u/L
- LIPASE [1]: 9 u/L
- PHOSPHORUS [1]: 12.8 mg/dL
- POTASSIUM [1]: 6.3 MEQ/L
- SODIUM [1]: 147.3 MEQ/L
- TOTAL BILIRUBIN [1]: 0.23 mg/dL
- TOTAL PROTEIN [1]: 6.03 G/DL
- URIC ACID [1]: 1.3 mg/dL
- ABSOLUTE BASOPHIL [2]: 0 CELLS/uL
- ABSOLUTE EOSINOPHIL [2]: 0 CELLS/uL
- ABSOLUTE LYMPHOCYTE [2]: 15247.67 CELLS/uL
- ABSOLUTE MONOCYTE [2]: 224.67 CELLS/uL
- ABSOLUTE SEGMENTED NEUTROPHIL [2]: 2294.33 CELLS/uL
- BASOPHIL [2]: 0%
- EOSINOPHIL [2]: 0%
- ERYTHROCYTE COUNT [2]: 5.9 x10E6/uL
- HEMATOCRIT [2]: 36.63%
- HEMOGLOBIN [2]: 13.87 G/DL
- LEUKOCYTE COUNT [2]: 17.77 x10E3/uL
- LYMPHOCYTE [2]: 85.33%
- MEAN CORPUSCULAR HEMOGLOBIN [2]: 23.5 pg
- MEAN CORPUSCULAR HEMOGLOBIN CONCENTRATION [2]: 37.83 G/DL
- MEAN CORPUSCULAR VOLUME [2]: 62.1 fL
- MONOCYTE [2]: 1.33%
- NEUTROPHIL [2]: 13.33%
- NUCLEATED RED BLOOD CELLS [2]: 0 /100WBC
- PLATELET COUNT [2]: 1316.67 x10E3/uL
- ALANINE AMINOTRANSFERASE [2]: 42.33 u/L
- ALBUMIN [2]: 4.33 G/DL
- ALKALINE PHOSPHATASE [2]: 270 u/L
- ASPARTATE AMINOTRANSFERASE [2]: 91 u/L
- BLOOD UREA NITROGEN [2]: 18.67 mg/dL
- CARBON DIOXIDE [2]: 25 mmol/L
- CHLORIDE [2]: 104 MEQ/L
- CHOLESTEROL [2]: 61 mg/dL
- CREATINE PHOSPHOKINASE [2]: 601.67 u/L
- CREATININE [2]: 0.19 mg/dL
- GLUCOSE [2]: 177.67 mg/dL
- LACTATE DEHYDROGENASE [2]: 433 u/L
- LIPASE [2]: 8.67 u/L
- PHOSPHORUS [2]: 14 mg/dL
- POTASSIUM [2]: 6.21 MEQ/L
- SODIUM [2]: 147.03 MEQ/L
- TOTAL BILIRUBIN [2]: 0.13 mg/dL
- TOTAL PROTEIN [2]: 6.3 G/DL
- URIC ACID [2]: 1.83 mg/dL
- ABSOLUTE BASOPHIL [3]: 0 CELLS/uL
- ABSOLUTE EOSINOPHIL [3]: 0 CELLS/uL
- ABSOLUTE LYMPHOCYTE [3]: 16010 CELLS/uL
- ABSOLUTE MONOCYTE [3]: 231.33 CELLS/uL
- ABSOLUTE SEGMENTED NEUTROPHIL [3]: 1025.33 CELLS/uL
- BASOPHIL [3]: 0%
- EOSINOPHIL [3]: 0%
- ERYTHROCYTE COUNT [3]: 6.28 x10E6/uL
- HEMATOCRIT [3]: 40.03%
- HEMOGLOBIN [3]: 14.6 G/DL
- LEUKOCYTE COUNT [3]: 17.27 x10E3/uL
- LYMPHOCYTE [3]: 92.67%
- MEAN CORPUSCULAR HEMOGLOBIN [3]: 23.33 pg
- MEAN CORPUSCULAR HEMOGLOBIN CONCENTRATION [3]: 36.47 G/DL
- MEAN CORPUSCULAR VOLUME [3]: 63.9 fL
- MONOCYTE [3]: 1.33%
- NEUTROPHIL [3]: 6%
- NUCLEATED RED BLOOD CELLS [3]: 0 /100WBC
- PLATELET COUNT [3]: 1313.67 x10E3/uL
- ALANINE AMINOTRANSFERASE [3]: 51.67 u/L
- ALBUMIN [3]: 4.5 G/DL
- ALKALINE PHOSPHATASE [3]: 417.33 u/L
- ASPARTATE AMINOTRANSFERASE [3]: 82.67 u/L
- BLOOD UREA NITROGEN [3]: 13.67 mg/dL
- CARBON DIOXIDE [3]: 23 mmol/L
- CHLORIDE [3]: 105.33 MEQ/L
- CHOLESTEROL [3]: 84 mg/dL
- CREATINE PHOSPHOKINASE [3]: 198.33 u/L
- CREATININE [3]: 0.22 mg/dL
- GLUCOSE [3]: 155.33 mg/dL
- LACTATE DEHYDROGENASE [3]: 234 u/L
- LIPASE [3]: 9 u/L
- PHOSPHORUS [3]: 14.77 mg/dL
- POTASSIUM [3]: 7.14 MEQ/L
- SODIUM [3]: 148.8 MEQ/L
- TOTAL BILIRUBIN [3]: 0.2 mg/dL
- TOTAL PROTEIN [3]: 6.33 G/DL
- URIC ACID [3]: 2.1 mg/dL
- ABSOLUTE BASOPHIL [4]: 0 CELLS/uL
- ABSOLUTE EOSINOPHIL [4]: 277 CELLS/uL
- ABSOLUTE LYMPHOCYTE [4]: 11716.67 CELLS/uL
- ABSOLUTE MONOCYTE [4]: 225 CELLS/uL
- ABSOLUTE SEGMENTED NEUTROPHIL [4]: 1048 CELLS/uL
- BASOPHIL [4]: 0%
- EOSINOPHIL [4]: 2%
- ERYTHROCYTE COUNT [4]: 5.69 x10E6/uL
- HEMATOCRIT [4]: 36.1%
- HEMOGLOBIN [4]: 13.83 G/DL
- LEUKOCYTE COUNT [4]: 13.27 x10E3/uL
- LYMPHOCYTE [4]: 88.67%
- MEAN CORPUSCULAR HEMOGLOBIN [4]: 24.27 pg
- MEAN CORPUSCULAR HEMOGLOBIN CONCENTRATION [4]: 38.33 G/DL
- MEAN CORPUSCULAR VOLUME [4]: 63.43 fL
- MONOCYTE [4]: 1.67%
- NEUTROPHIL [4]: 7.67%
- NUCLEATED RED BLOOD CELLS [4]: 0 /100WBC
- PLATELET COUNT [4]: 1319.67 x10E3/uL
- ALANINE AMINOTRANSFERASE [4]: 44 u/L
- ALBUMIN [4]: 4.43 G/DL
- ALKALINE PHOSPHATASE [4]: 308.33 u/L
- ASPARTATE AMINOTRANSFERASE [4]: 87.33 u/L
- BLOOD UREA NITROGEN [4]: 20.67 mg/dL
- CARBON DIOXIDE [4]: 24.33 mmol/L
- CHLORIDE [4]: 106.67 MEQ/L
- CHOLESTEROL [4]: 58.67 mg/dL
- CREATINE PHOSPHOKINASE [4]: 307 u/L
- CREATININE [4]: 0.18 mg/dL
- GLUCOSE [4]: 143 mg/dL
- LACTATE DEHYDROGENASE [4]: 514.33 u/L
- LIPASE [4]: 9 u/L
- PHOSPHORUS [4]: 12.6 mg/dL
- POTASSIUM [4]: 6.63 MEQ/L
- SODIUM [4]: 147.1 MEQ/L
- TOTAL BILIRUBIN [4]: 0.17 mg/dL
- TOTAL PROTEIN [4]: 6.27 G/DL
- URIC ACID [4]: 1.5 mg/dL
